System: T1, Rhus vernicifera laccase (free laccase)
T1 construct: gene urishiol oxidase
Settings: free enzyme; 100 mM sodium citrate buffer, optimum pH (3.5), 25°C; ABTS 0.05-20.0 mM

Km: 1720 ± 380 µM
Compound: CCn1c(=NN=c2sc3cc(S(=O)(=O)O)ccc3n2CC)sc2cc(S(=O)(=O)O)ccc21 [ABTS, 2,2'-azino-bis (3-ethylbenzothiazoline-6-sulfonic acid)]

Source: article PMC9895995, “Laccase Immobilization on Copper-Magnetic Nanoparticles for Efficient Bisphenol Degradation” (Journal of Microbiology and Biotechnology, 2022)
